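All cell lines were grown in 96-well plates and treated with compound for 48 hours. The concentration for 50% growth inhibition is given as GI50.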 Active and inactive are the calls of the source. No stated cut-off is given here; in the data, active = GI50 up to about 1.1 µM and inactive = higher. *1 amine or outer side, *2 acyl side, *3 side chain or, on linkers, in order; H or OH if unused. Where a SMILES comes first, the peptide text is derived from it. [ ]: non-standard residue; d: D form. The star is where a group is joined. ξ: configuration not given here. X53 = CC(C)C[C@H](N[*:1])C1=N[C@H](C(=O)[*:2])CS1; Ile(3ξ) = CCC(C)[C@H](N)C(=O)O; Allyl(1,1-Me2) = C=CC(C)(C)*; Cbz = O=C(OCc1ccccc1)*; OBn = c1ccc(CO*)cc1
Key:
Experiment in all cases: DTP human tumour cell line panel, 48 h
MDA-N = system: MDA-N
T47D = system: T47D
MDA-MB-435 = system: MDA-MB-435

Row | Compound | GI50 (MDA-N) | GI50 (T47D) | GI50 (MDA-MB-435)
1 | C/C(=N/NC(=S)N1CC2CCC(CC2)C1)c1cnccn1 | 0.37 µM (active) | < 0.0461 µM (active) | 0.243 µM (active)
2 | C[N+](C)([O-])Cc1cccc(NC(=O)c2ccc(C(=O)Nc3cccc(C[N+](C)(C)[O-])c3)cc2)c1 | – | > 100 µM (inactive) | –
3 | Cc1ncc([N+](=O)[O-])n1CCNC(=O)CCCCCn1ccnc1[N+](=O)[O-] | > 100 µM (inactive) | > 100 µM (inactive) | > 100 µM (inactive)
4 | CCCCCCC(=O)OC[n+]1cccc(-c2c(COC(=O)NC(C)C)c(COC(=O)NC(C)C)c3n2CCC3)c1 | > 95.3 µM (inactive) | 61.8 µM (inactive) | 70.8 µM (inactive)
5 | O=C(O)Cc1ccc([N+](=O)[O-])cc1[N+](=O)[O-] | > 100 µM (inactive) | > 100 µM (inactive) | > 100 µM (inactive)
6 | N=c1sc2ccccc2n1CC[S-].c1ccc2c(c1)sc1[n+]2CCS1 | 37.1 µM (inactive) | 23.6 µM (inactive) | 15.7 µM (inactive)
7 | CCCC(CCN)(CCN)[N+](=O)[O-] | > 100 µM (inactive) | > 100 µM (inactive) | > 100 µM (inactive)
8 | COc1cc(/C=C2/SC(c3ccccc3)N(c3ccccc3Cl)C2=O)cc(OC)c1OC (stereo unspecified) | 28 µM (inactive) | 29.2 µM (inactive) | 27.2 µM (inactive)
9 | COc1cc(C(=O)/C=C/c2ccc(OCC#N)cc2)cc(OC)c1OC | 38 µM (inactive) | 17.3 µM (inactive) | 20.5 µM (inactive)
10 | COC(=O)c1c2c(cc3c1CC1(Cc4ccccc4C1=O)C3)CCC2 (stereo unspecified) | 8.55 µM (inactive) | 52.7 µM (inactive) | 13.5 µM (inactive)
11 | Fc1ccc(C(OCCN2CC3CCC(C2)N3CCCc2ccccc2)c2ccc(F)cc2)cc1 | 3.43 µM (inactive) | 1.95 µM (inactive) | 2.13 µM (inactive)
12 | Cc1cccc(NC(=O)CC(=O)N2N=C(N3c4ccccc4Sc4ccccc43)CC2c2ccccc2)c1 (stereo unspecified) | – | > 100 µM (inactive) | > 100 µM (inactive)
13 | Nc1nc2cc3nc(N)c(N)nc3cc2nc1N | > 100 µM (inactive) | – | > 100 µM (inactive)
14 | CCOC(=O)C1(C#N)C(=O)c2cc[n+](CC[n+]3ccc4c(c3)C(=O)C(C#N)(C(=O)OCC)C4=O)cc2C1=O (stereo unspecified) | 64.1 µM (inactive) | 53.3 µM (inactive) | > 100 µM (inactive)
15 | Nc1ccn(C2OC(COP(=O)(O)O)C(O)C2O)c(=O)n1 (stereo unspecified) | 37.8 µM (inactive) | 42 µM (inactive) | 14.5 µM (inactive)
16 | COc1cc2c(cc1OC)CCc1cc(OC)c(OC)cc1CC2 | > 100 µM (inactive) | 31.3 µM (inactive) | > 100 µM (inactive)
17 | COC1C=COC2(C)Oc3c(C)c(O)c4c(O)c(c(C5SCCS5)c(O)c4c3C2=O)NC(=O)/C(C)=C\C=CC(C)C(O)C(C)C(O)C(C)C(OC(C)=O)C1C (stereo unspecified) | – | 3.1 µM (inactive) | 4.26 µM (inactive)
18 | NC(=S)C1=C(N)Oc2c(c(=O)oc3ccccc23)C1c1ccc(Br)cc1 (stereo unspecified) | > 100 µM (inactive) | – | > 100 µM (inactive)
19 | CN1N(c2ccccc2)C(=O)C2=NC=C(C#N)C(=N)C21C (stereo unspecified) | > 100 µM (inactive) | – | > 100 µM (inactive)
20 | N#Cc1c(NC(=S)Nc2ccccc2)sc2c1CCCC2 | > 100 µM (inactive) | > 100 µM (inactive) | > 100 µM (inactive)
21 | COc1ccc(C(=O)/C=C/c2ccc(OCCCCCCCCCCOc3ccc(/C=C/C(=O)c4ccc(OC)cc4)cc3)cc2)cc1 | > 100 µM (inactive) | > 100 µM (inactive) | > 100 µM (inactive)
22 | O=C1/C(=C/c2ccc(Cl)cc2)CSC/C1=C\c1ccc(Cl)cc1 | 3.06 µM (inactive) | 6.89 µM (inactive) | –

Row | Compound | GI50 (MDA-N) | GI50 (T47D) | GI50 (MDA-MB-435)
23 | COc1cccc(CC(C)NCC(O)c2ccc(O)c(O)c2)c1 (stereo unspecified) | – | 25.3 µM (inactive) | 44.4 µM (inactive)
24 | COc1c(Sc2c(SCSc3cnc4ccccc4c3Sc3cnc4ccccc4c3OC)cnc3ccccc23)cnc2ccccc12 | 77.8 µM (inactive) | > 100 µM (inactive) | 26.9 µM (inactive)
25 | Brc1ccc(-c2[nH]c3ccccc3c2/N=N\c2ccccc2)cc1 | 16.6 µM (inactive) | 16.7 µM (inactive) | 19.1 µM (inactive)
26 | COC(=O)C(Cc1ccc(O)cc1)NC(=O)C(CC(=O)OCc1ccccc1)NC(=O)OCc1ccccc1 (stereo unspecified) (Cbz-Asp(OBn)-Tyr-OMe; configuration not given here) | 19.4 µM (inactive) | 19.5 µM (inactive) | –
27 | O=c1[nH]nc(-c2ccccc2)n1/N=C/c1ccccc1O | > 100 µM (inactive) | > 100 µM (inactive) | > 100 µM (inactive)
28 | FC(F)(F)c1ccc(C2=N/S(c3ccccc3)=N\C(c3ccc(C(F)(F)F)cc3)=N/S(c3ccccc3)=N\2)cc1 (stereo unspecified) | > 100 µM (inactive) | – | > 100 µM (inactive)
29 | O=C1/C(=C/c2cccc(Br)c2)CSC/C1=C\c1cccc(Br)c1 | 2.65 µM (inactive) | 4.89 µM (inactive) | –
30 | CCN(CCCl)c1cc(CN(C)C)cc(NC(=O)c2cc(C(=O)Nc3cc(CN(C)C)cc(N(CC)CCCl)c3)n(C)n2)c1 | 1.22 µM (inactive) | 0.508 µM (active) | 0.213 µM (active)
31 | C=CC(C)(C)OC[C@@H]1NC(=O)CNC(=O)[C@@H]2CCCN2C(=O)[C@H](C(C)CC)NC(=O)[C@@H]2CSC(=N2)[C@H](CC(C)C)NC1=O (stereo partly specified) (cyclo(GS(Allyl(1,1-Me2))[X53][Ile(3ξ)]P)) | > 100 µM (inactive) | 33.6 µM (inactive) | 26.4 µM (inactive)
32 | CC(C)N1CCN(c2ccc(OCC3COC(Cn4cncn4)(c4ccc(Cl)cc4Cl)O3)cc2)CC1 (stereo unspecified) [TERCONAZOLE] | 4.86 µM (inactive) | 18 µM (inactive) | 4.97 µM (inactive)
33 | S=C1NCCN1C(=S)NC1CCCCC1 | 36.9 µM (inactive) | 27.7 µM (inactive) | 26.2 µM (inactive)
34 | COc1ccc(-c2oc3c(OC)c(OC)cc(O)c3c(=O)c2OC)cc1 | > 100 µM (inactive) | > 100 µM (inactive) | > 100 µM (inactive)
35 | CC(C)=CCC[C@@H](C)c1c2nc3ccccc3[nH]c-2c(C)c(=O)c1O | 2.09 µM (inactive) | 1.91 µM (inactive) | 2.73 µM (inactive)
36 | COc1ccc(CNC(=O)[C@H](Cc2ccc(O)cn2)NC(C)=O)cc1 | > 100 µM (inactive) | > 100 µM (inactive) | > 100 µM (inactive)
37 | COc1cc2c(cc1O)NC(=O)[C@@H]1CCCN1C2=O | > 100 µM (inactive) | > 100 µM (inactive) | > 100 µM (inactive)
38 | COc1cc(C(c2c(O)c3ccccc3oc2=O)c2c(O)c3ccccc3oc2=O)cc(Br)c1O | 18.4 µM (inactive) | 22.8 µM (inactive) | 20.3 µM (inactive)
39 | c1ccc2c(Cc3[nH]c4ccccc4c3Cc3c[nH]c4ccccc34)c[nH]c2c1 | 2.16 µM (inactive) | 2.93 µM (inactive) | 2.08 µM (inactive)
40 | CCO/C=N\c1c(C#N)c(-c2ccc(Cl)cc2)cn1-c1ccc(C)cc1 | > 100 µM (inactive) | – | > 100 µM (inactive)
41 | CN(C)C1C(O)=C(C(=O)NCN2CCCC2)C(=O)C2(O)C(O)=C3C(=O)c4c(O)cccc4C(C)(O)C3CC12 (stereo unspecified) | > 100 µM (inactive) | > 100 µM (inactive) | 34.5 µM (inactive)
42 | COc1cccc(CCNC(=O)Cc2ccccc2CCO)c1 | – | > 100 µM (inactive) | > 100 µM (inactive)
43 | Cc1cc(OCc2nnc3n2S(=O)(=O)c2ccccc2N3C)ccc1Cl | – | 18.5 µM (inactive) | > 100 µM (inactive)
44 | C=CCn1c(-c2ccc(/N=N/Nc3ccc(-c4n[nH]c(=S)n4CC=C)cc3)cc2)n[nH]c1=S | – | 1.11 µM (active) | 3.33 µM (inactive)
